Literature values, collected in publication PMC10855781 (International Journal of Molecular Sciences, 2024).

How the values were obtained:
DNA = conditions: apparent equilibrium binding constant; ref [72]
Text: Figure 2 The equilibrium binding constants of daunomycin (Dau) and its oxime-linked amino acid derivatives to DNA. TEXT PRINTED IN THE PICTURE: Dau: K (x10^5)(M^−1): 11.7 | H-Lys(Dau=Aoa-OH): K (x10^5)(M^−1): 6.8 | Dau=Aoa-Gly-OH: K (x10^5)(M^−1): 6.74 | Dau=Aoa-Tyr-OH: K (x10^5)(M^−1): 4.4 | Dau=Aoa-Leu-OH: K (x10^5)(M^−1): 3.23

[1] = test system: human breast adenocarcinoma (MCF-7); conditions: ref [75]
Text: Table 2 Comparative study of cytotoxic effects and cardiotoxicity elicited by selected GnRH-based anthracycline conjugates. | column: IC50 Values (μM)

[2] = test system: human colorectal adenocarcinoma (HT-29); conditions: Table 2; ref [75]
Text: Table 2 Comparative study of cytotoxic effects and cardiotoxicity elicited by selected GnRH-based anthracycline conjugates. || Table 3 In vivo tumor growth inhibition of a few relevant Dau-GnRH-III conjugates. | column: Cytostatic Effect (IC50: μM) on HT-29 cells

[3] = test system: Human cardiac myocytes (HCM); parameters: key: 0: no cardiotoxicity; +: weak; ++: moderate; +++: strong cardiotoxicity; conditions: long-term (0–72 h) cytotoxic effect, impedimetric; ref [75]
Text: Table 2 Comparative study of cytotoxic effects and cardiotoxicity elicited by selected GnRH-based anthracycline conjugates. | column: Cardiotoxicity || The main drug-related toxic side effect of anthracyclines is cardiotoxicity, leading to cardiomyopathy and heart failure. Comparative experiments to determine the cardiotoxicity of peptide–anthracycline conjugates with different linkages might be informative for the other conjugates with different types of drugs as well. For this purpose, human cardiomyocytes (HCM) and human umbilical vein endothelial cells (HUVEC) were used as models. The long-term (0–72 h) cytotoxic effect of sixteen GnRH-based conjugates containing Dox and Dau was determined by real-time impedimetric sensing using th ...

[4] = test system: human umbilical vein endothelial cells (HUVEC); parameters: key: 0: no cardiotoxicity; +: weak; ++: moderate; +++: strong cardiotoxicity; conditions: long-term (0–72 h) cytotoxic effect, impedimetric; ref [75]
Text: Table 2 Comparative study of cytotoxic effects and cardiotoxicity elicited by selected GnRH-based anthracycline conjugates. | column: Cardiotoxicity

C26 murine colon cancer = conditions: ref [20]
Experimental: Table 3 In vivo tumor growth inhibition of a few relevant Dau-GnRH-III conjugates. | column: C26 ^a s.c. Balb/c [%] || In our experiments, GnRH-III was applied as a targeting peptide. […] The effect highly depended on the treatment schedule. In the first attempt, the conjugate was administered i.p. at a dose of 8.86 μmol (5 mg Dau-content/kg body weight) five times on days 7, 9, 11, 14 and 16 after tumor transplantation ...

C26 colon tumor = conditions: (w) tumor weight reduction, day 13; treatments days 4 and 7; conjugates 26.6 μmol/kg (15 mg Dau content), Dau 2 mg/kg; ref [82],[86]
Experimental: Table 3 In vivo tumor growth inhibition of a few relevant Dau-GnRH-III conjugates. | column: C26 orth. […] In the case of the C26 colon tumor-bearing female Balb/c mice, only a 7% reduction in tumor weight was detected on day 13 after the two treatments on days 4 and 7 with [^8Lys(Dau=Aoa)]-GnRH-III, at a 26.6 μmol/kg (15 mg Dau content) dose. […] It is worth ment ...

HT-29 human colon cancer = conditions: ref [82]
Text: Table 3 In vivo tumor growth inhibition of a few relevant Dau-GnRH-III conjugates. | column: HT-29 orth. SCID [%] || Starting from these promising results, Dau conjugates with further GnRH-III derivatives using different short-chain fatty acids (on the side chains of Lys in position 4) were developed. […] The experiment finished on day 30, but the animals in the group treated with Dau had to be sacrificed on day 23. […] However, these numbers cannot be directly compared because the termination days were different during the experiment. The toxicities of the compound ...

[5] = test system: PC-3 human prostatic adenocarcinoma; parameters: method as in PMID 36834815; conditions: s.c. PC-3; i.p. 10 mg Dau-content/kg every fifth day from day 9, five treatments; day 33; Dau 1 mg/kg, terminated day 26; ref [84]
Text: This 14-mer peptide (Glp-[…]NH2), first discovered in the skin of the frog Bombina bombina, is associated with the gastrin-releasing peptide (GRP) as a mammalian counterpart. The bombesin receptor family comprises neuromedin receptor B (NMB-R, or BB1), gastrin-releasing peptide receptor (GRP-R, or BB2) and bombesin receptor subtype 3 (BRS-3, or BB3). Among them, GRP-R has been the most investig ...

PANC-1 tumor = conditions: ref [110]
Experimental: The in vivo tumor growth inhibitory effect of the conjugate and free Dau was investigated on s.c.-developed PANC-1 tumor-bearing SCID female mice. The free drug was applied once a week at a maximum tolerated dose of 1 mg/kg body weight (three treatments), while the conjugate was administered, on average, three times per a week either at a 2 mg/kg or 10 mg/kg dose, calculated as per the Dau content (eighteen treatments altogether). The first treatment was given on day 10 after tumor inoculation. After the third treatment with free Dau, the animals lost 20% of their weight; therefore, the mice i ...

SMILES: COc1cccc2c1C(=O)c1c(O)c3c(c(O)c1C2=O)C[C@@](O)(C(C)=O)C[C@@H]3O[C@H]1C[C@H](N)[C@H](O)[C@H](C)O1 [Dau, daunomycin]
- K, equilibrium binding constant to DNA (DNA): 1.17e+06 M⁻¹
- IC50 [1]: 0.4 ± 0.1 µM
- IC50 [2]: 0.3 ± 0.2 µM
- Cardiotoxicity, HCM [3]: +++
- Cardiotoxicity, HUVEC [4]: +++
- tumor volume inhibition (C26 murine colon cancer; free Dau 2 mg/kg (3.55 μmol) days 7, 9, 11, 14, 16, day 26): 22.6%
- median survival rate in comparison to the control group (C26 murine colon cancer; free Dau 2 mg/kg days 7, 9, 11, 14, 16): 0.81
- C26 orth. Balb/c tumor growth inhibition (w) (C26 colon tumor): 24.4%
- relative liver weight loss in comparison with the controls (HT-29 human colon cancer; Dau 1 mg/kg i.v. weekly for 7 weeks): 11%
- tumor weight reduction (HT-29 human colon cancer; conjugates 17.72 μmol (10 mg Dau content)/kg s.c. x7, end day 30, Dau 1 mg/kg days 7, 13, 20, sacrificed day 23): 84.3%
- reduction in tumor weight (HT-29 human colon cancer; conjugates 15 mg Dau content/kg i.v. x5 from day 5, then 7.5 mg i.p. x8, twice a week, Dau 1 mg/kg i.v. weekly for 7 weeks): 29.7%
- proliferation index compared to the controls (HT-29 human colon cancer; same experiment as E44, average): 98.6%
- vascularization rate compared to the controls (HT-29 human colon cancer; same experiment as E44): 112.5%
- rate of changes in the liver and body weights (HT-29 human colon cancer; same experiment as E49): 70.6%
- tumor volume inhibition [5]: without showing a significant reduction
- decrease in liver weight (PANC-1 tumor; Dau 1 mg/kg once a week, three treatments): 29.1%
- body weight loss (PANC-1 tumor; after third treatment, 1 mg/kg once a week, sacrificed day 28): 20%
